From patent publication US20230066946A1, “1,5-DIPHENYLPYRAZOLYL-3-OXYALKYL ACIDS AND 1-PHENYL-5-THIENYLPYRAZOLYL-3-OXYALKYL ACIDS AND THE USE THEREOF FOR CONTROL OF UNWANTED PLANT GROWTH” (Bayer Aktiengesellschaft, priority 2019, published 2023)

Assays:
[1] = test system: ECHCG; test: Pre-emergence herbicidal action against ECHCG; assay type: in vivo, Echinochloa crus-galli; settings: scored visually after about 3 weeks vs untreated controls, 100% = plants have died, 0% = like control plants
Outline: (§1)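 Visual percent activity (100% = plants dead, 0% = like control) scored about 3 weeks after pre-emergence treatment in greenhouse. Compounds as WP or EC, applied to covering soil surface with 0.5% additive, 600 L/ha water, at 1280 or 320 g/ha.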

[2] = test system: SETVI; test: Pre-emergence herbicidal action against SETVI; assay type: in vivo, Setaria viridis; settings: 1280 g/ha, scored visually after about 3 weeks vs untreated controls
Outline: as §1

[3] = test system: AMARE; test: Pre-emergence herbicidal action against AMARE; assay type: in vivo, Amaranthus retroflexus; settings: scored visually after about 3 weeks vs untreated controls; for Pre-emergence action at 320 g/ha against AMARE in %: 100% = plants have died, 0% = like control plants; for Pre-emergence action against AMARE in %: 1280 g/ha
Outline: as §1

[4] = test system: POLCO; test: Pre-emergence herbicidal action against POLCO; assay type: in vivo, Polygonum convolvulus; settings: 320 g/ha, scored visually after about 3 weeks vs untreated controls
Text: (§2) Seeds of mono- and dicotyledonous weed plants are placed in plastic pots in sandy loam soil (doubly sown with one species each of mono- or dicotyledonous weed plants per pot) and covered with soil. The compounds of the invention, formulated in the form of wettable powders (WP) or as emulsion concentrates (EC), are then applied onto the surface of the covering soil as aqueous suspension or emulsion with addition of 0.5% additive at a water application rate equivalent to 600 litres per hectare. After the treatment, the pots are placed in a greenhouse and kept under good growth conditions for the trial plants. After about 3 weeks, the effect of the preparations is scored visually in comparison with untreated controls as percentages. For example, 100% activity=the plants have died, 0% activity=like control plants. [table] Tables 4.1-4.15 below show the effects of selected compounds of the general formula (I) according to Tables 1 to 3 on various harmful plants at an application rate corresponding to 1280 or 320 g/ha, which have been obtained by the aforementioned experimental method.

[5] = test system: STEME; test: Pre-emergence herbicidal action against STEME; assay type: in vivo, Stellaria media; settings: scored visually after about 3 weeks vs untreated controls
Outline: as §1

[6] = test system: VERPE; test: Pre-emergence herbicidal action against VERPE; assay type: in vivo, Veronica persica; settings: 320 g/ha, scored visually after about 3 weeks vs untreated controls
Text: as §2

[7] = test system: ECHCG; test: Post-emergence herbicidal action against ECHCG; assay type: in vivo, Echinochloa crus-galli; settings: 1280 g/ha, post-emergence at one-leaf stage, rated visually after about 3 weeks vs untreated controls
Experimental: (§3) [table] Seeds of mono- and dicotyledonous weed plants are placed in plastic pots in sandy loam soil (twin sowing with one species each of mono- or dicotyledonous weed plants per pot), covered with soil and cultivated in a greenhouse under controlled growth conditions. 2 to 3 weeks after sowing, the test plants are treated at the one-leaf stage. The compounds of the invention, formulated in the form of wettable powders (WP) or as emulsion concentrates (EC), are applied to the green parts of the plants as aqueous suspension or emulsion with addition of 0.5% additive at a water application rate equivalent to 600 litres per hectare. After the test plants have been kept in the greenhouse under optimum growth conditions for about 3 weeks, the activity of the preparations is rated visually in comparison to untreated controls. For example, 100% activity=the plants have died, 0% activity=like control plants. Tables 5.1-5.16 below show the effects of selected compounds of the general formula (I) according to Tables 1 to 3 on various harmful plants at an application rate corresponding to 1280 or 320 g/ha, which have been obtained by the aforementioned experimental method.

[8] = test system: SETVI; test: Post-emergence herbicidal action against SETVI; assay type: in vivo, Setaria viridis; settings: 1280 g/ha, post-emergence at one-leaf stage, rated visually after about 3 weeks vs untreated controls
Outline: (§4)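 Herbicidal effect, rated visually about 3 weeks after treatment as percent versus untreated controls. Test plants in sandy loam had received a foliar application at the one-leaf stage of 1280 or 320 g/ha, formulated as WP or EC with 0.5% additive in 600 litres per hectare water.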

[9] = test system: AMARE; test: Post-emergence herbicidal action against AMARE; assay type: in vivo, Amaranthus retroflexus; settings: visual rating about 3 weeks after treatment
Outline: as §4

[10] = test system: PHBPU; test: Post-emergence herbicidal action against PHBPU; assay type: in vivo, Pharbitis purpurea; settings: 320 g/ha, visual rating about 3 weeks after treatment
Experimental: as §3

[11] = test system: VERPE; test: Post-emergence herbicidal action against VERPE; assay type: in vivo, Veronica persica; settings: 320 g/ha, visual rating about 3 weeks after treatment
Experimental: as §3

[12] = test system: harmful plants; test: Pre-emergence herbicidal action, summary of Tables 4.1-4.15; assay type: in vivo; settings: result in words
Text: as §2, with “plants.” for “plants. [table] Tables 4.1-4.15 below show the effects of selected compounds of the general formula (I) according to Tables 1 to 3 on various harmful plants at an application rate corresponding to 1280 or 320 g/ha, which have been obtained by the aforementioned experimental method.”
Tables 4.1-4.15 below show the effects of selected compounds of the general formula (I) according to Tables 1 to 3 on various harmful plants at an application rate corresponding to 1280 or 320 g/ha, which have been obtained by the aforementioned experimental method.
For example, compounds no. I-008, I-056, I-057, I-061, I-067, I-070 and I-072 applied by the pre-emergence method have very good action (80% to 100% herbicidal action) against harmful plants such as Alopecurus myosuroides, Amaranthus retroflexus, Matricaria inodora, Polygonum convolvulus, Setaria viridis and Stellaria media at an application rate of 1.28 kg of active substance or less per hectare.

[13] = test system: MATIN; test: Post-emergence herbicidal action against MATIN; assay type: in vivo, Matricaria inodora; settings: visual rating about 3 weeks after treatment
Outline: as §4

[14] = test system: STEME; test: Post-emergence herbicidal action against STEME; assay type: in vivo, Stellaria media; settings: visual rating about 3 weeks after treatment
Outline: as §4

[15] = test system: MATIN; test: Pre-emergence herbicidal action against MATIN; assay type: in vivo, Matricaria inodora; settings: 1280 g/ha, scored visually after about 3 weeks vs untreated controls
Text: as §2

[16] = test system: VIOTR; test: Post-emergence herbicidal action against VIOTR; assay type: in vivo, Viola tricolor; settings: 320 g/ha, visual rating about 3 weeks after treatment
Experimental: as §3

[17] = test system: POLCO; test: Post-emergence herbicidal action against POLCO; assay type: in vivo, Polygonum convolvulus; settings: 320 g/ha, visual rating about 3 weeks after treatment
Experimental: as §3

Compound | Pre-emergence action at 1280 g/ha against ECHCG in % [1] [%] | Pre-emergence action against SETVI in % [2] [%] | Pre-emergence action at 320 g/ha against AMARE in % [3] [%] | Pre-emergence action against AMARE in % [3] [%] | Pre-emergence action against POLCO in % [4] [%] | Pre-emergence action against STEME in % ([5]; 320 g/ha) [%] | Pre-emergence action against STEME in % ([5]; 1280 g/ha) [%] | Pre-emergence action against VERPE in % [6] [%] | Post-emergence action against ECHCG in % [7] [%] | Post-emergence action against SETVI in % [8] [%] | Post-emergence action against AMARE in % ([9]; 320 g/ha) [%] | Post-emergence action against AMARE in % ([9]; 1280 g/ha) [%] | Post-emergence action against PHBPU in % [10] [%] | Post-emergence action against VERPE in % [11] [%] | herbicidal efficacy against harmful plants in the case of pre-emergence treatment [12] | Post-emergence action against MATIN in % ([13]; 1280 g/ha) [%] | Post-emergence action against STEME in % ([14]; 1280 g/ha) [%] | Post-emergence action against VIOTR in % [16] [%] | further results
C=CCNC(=O)COc1nn(-c2ccccc2F)c(-c2ccccc2)c1Br [III-003] | 100 | 100 | 100 | 100 | 100 | 100 | 100 | 100 | 100 | 100 | 80 | 100 | 80 | 80 | good herbicidal efficacy |  |  |  | 
O=C(O)COc1nn(-c2ccc(F)cc2)c(-c2cccc(F)c2)c1[N+](=O)[O-] [I-121] | 100 | 100 |  | 90 |  |  | 100 |  |  |  |  |  |  |  | good herbicidal efficacy | 90 | 100 |  | 
COC(=O)CNC(=O)COc1nn(-c2ccc(F)cc2)c(-c2cccc(F)c2)c1Cl [III-027] | 100 | 90 |  | 100 |  |  | 100 |  | 90 | 100 |  | 90 |  |  | good herbicidal efficacy | 100 | 90 |  | 
COC(=O)COc1nn(-c2cccc(Cl)c2)c(-c2ccc(F)c(F)c2)c1Cl [I-026] |  |  |  | 80 |  |  |  |  |  |  |  | 80 | 90 |  |  |  |  | 80 | Pre-emergence action against MATIN in % [15]: 90%
CCOC(=O)COc1nn(-c2ccc(F)cc2F)c(-c2ccc(F)cc2)c1Br [I-081] | 90 | 100 | 80 | 100 | 100 | 80 | 100 | 80 | 90 | 90 | 90 | 100 | 90 | 80 |  | 100 | 100 | 100 | Post-emergence action against MATIN in % ([13]; 320 g/ha): 80%; Post-emergence action against POLCO in % [17]: 80%; Post-emergence action against STEME in % ([14]; 320 g/ha): 80%
C=CCNC(=O)COc1nn(-c2ccc(F)cc2)c(-c2cccc(F)c2)c1Cl [III-022] | 100 | 100 |  | 90 |  |  | 100 |  | 90 | 100 |  | 90 |  |  | good herbicidal efficacy |  | 100 |  | 
